# In ChEMBL document CHEMBL5543109, “Novel β-Hairpin Antimicrobial Peptide Containing the β-Turn Sequence of -NG- and the Tryptophan Zippers Facilitate Self-Assembly into Nanofibers, Exhibiting Excellent Antimicrobial Performance” (J Med Chem, 2024):
# Legend:
# [1] = test system: Erythrocyte; assay: Hemolytic activity in mouse erythrocytes assessed as concentration required to cause 10% hemolysis incubated for 1 hr; format: toxicity, cell-based
# [2] = test system: Staphylococcus aureus; assay: Bactericidal activity against Staphylococcus aureus ATCC 25923 incubated for 18 hrs by broth microdilution method; format: functional
# [3] = test system: Staphylococcus aureus; assay: Antibacterial activity against Staphylococcus aureus at 2 times MIC preincubated for 1 hr with chymotrypsin followed by enzyme inactivation and bacterial addition and measured after 18 hrs; format: functional; settings: time 19 hrs
# [4] = test system: Staphylococcus epidermidis; assay: Antibacterial activity against Staphylococcus epidermidis ATCC 12228 incubated for 18 hrs by broth microdilution method; format: functional
# [5] = test system: Escherichia coli; assay: Antibacterial activity against Escherichia coli ATCC 25922 incubated for 18 hrs by broth microdilution method; format: functional
# [6] = test system: Escherichia coli; assay: Bactericidal activity against Escherichia coli ATCC 25922 incubated for 18 hrs by broth microdilution method; format: functional
# [7] = test system: Klebsiella pneumoniae; assay: Antibacterial activity against Klebsiella pneumoniae ATCC 700603 incubated for 18 hrs by broth microdilution method; format: functional
# [8] = test system: Bacillus subtilis; assay: Bactericidal activity against Bacillus subtilis ATCC 23857 incubated for 18 hrs by broth microdilution method; format: functional
# [9] = test system: Staphylococcus aureus; assay: Antibacterial activity against Staphylococcus aureus at 2 times MIC preincubated for 1 hr with trypsin followed by enzyme inactivation and bacterial addition and measured after 18 hrs; format: functional; settings: time 19 hrs
# [10] = test system: Pseudomonas aeruginosa; assay: Antibacterial activity against Pseudomonas aeruginosa ATCC 27853 incubated for 18 hrs by broth microdilution method; format: functional
# [11] = test system: Staphylococcus aureus; assay: Antibacterial activity against Staphylococcus aureus ATCC 25923 incubated for 18 hrs by broth microdilution method; format: functional
# [12] = Self-assembly property of compound in PBS assessed as beta-sheet nanofibers formation incubated for 1 hr by Thioflavin T based fluorescence spectrophotometer analysis; format: physicochemical; settings: buffer, dose 0.5-1.5 µM
# [13] = test system: Klebsiella pneumoniae; assay: Bactericidal activity against Klebsiella pneumoniae ATCC 700603 incubated for 18 hrs by broth microdilution method; format: functional
# [14] = test system: Pseudomonas aeruginosa; assay: Bactericidal activity against Pseudomonas aeruginosa ATCC 27853 incubated for 18 hrs by broth microdilution method; format: functional
# [15] = test system: Bacillus subtilis; assay: Antibacterial activity against Bacillus subtilis ATCC 23857 incubated for 18 hrs by broth microdilution method; format: functional
# [16] = Retention time of the compound; format: physicochemical
# [17] = test system: Staphylococcus epidermidis; assay: Bactericidal activity against Staphylococcus epidermidis ATCC 12228 incubated for 18 hrs by broth microdilution method; format: functional
# [18] = Self-assembly property of compound in PBS assessed as beta-sheet content; format: physicochemical; settings: buffer
# [19] = Self-assembly property of compound in water assessed as beta-sheet content; format: physicochemical
# [20] = Self-assembly property of compound in 50% TFE assessed as beta-sheet content; format: physicochemical
# [21] = Acute toxicity in mouse assessed as alveolar cavity wrinkling at 25.8 mg/kg, ip by H and E staining based assay; format: organism-based; settings: in vivo
# [22] = Acute toxicity in mouse assessed as mortality rate at 21 mg/kg, ip by karber method; format: organism-based; settings: in vivo
# [23] = Acute toxicity in mouse assessed as tissue hemorrhage at 25.8 mg/kg, ip by H and E staining based assay; format: organism-based; settings: in vivo
# [24] = Acute toxicity in mouse assessed as inflammatory cell infiltration at 25.8 mg/kg, ip by H and E staining based assay; format: organism-based; settings: in vivo
# [25] = Acute toxicity in mouse assessed as mortality rate at 30 mg/kg, ip by karber method; format: organism-based; settings: in vivo
# [26] = Acute toxicity in mouse assessed as renal cell necrosis at 25.8 mg/kg, ip by H and E staining based assay; format: organism-based; settings: in vivo
# [27] = Acute toxicity in ip dosed mouse by karber method; format: organism-based; settings: in vivo, ip
# [28] = Acute toxicity in mouse assessed as mortality rate at 25 mg/kg, ip by karber method; format: organism-based; settings: in vivo
# [29] = Acute toxicity in mouse assessed as lung cell necrosis at 25.8 mg/kg, ip by H and E staining based assay; format: organism-based; settings: in vivo
# [30] = Acute toxicity in mouse assessed as hepatocyte necrosis at 25.8 mg/kg, ip by H and E staining based assay; format: organism-based; settings: hepatocytes
# [31] = Acute toxicity in mouse assessed as cellular atrophy at 25.8 mg/kg, ip by H and E staining based assay; format: organism-based; settings: in vivo
MIC [4],MIC [5],MIC [7],MIC [10],MIC [11],MIC [15],Retention_time [16],Activity [18],Activity [19],Activity [20],Molecule,MHC [1],MBC [2],Activity [3],MBC [6],MBC [8],Activity [9],MBC [13],MBC [14],MBC [17],other results
4 µM,8 µM,8 µM,4 µM,4 µM,2 µM,14.321 min,,,,NCCCC[C@@H](NC(=O)[C@H](N)Cc1c[nH]c2ccccc12)C(=O)N[C@H](Cc1c[nH]c2ccccc12)C(=O)N[C@H](CCCCN)C(=O)N[C@H](Cc1c[nH]c2ccccc12)C(=O)NCC(=O)NCC(=O)N[C@H](Cc1c[nH]c2ccccc12)C(=O)N[C@H](CCCCN)C(=O)N[C@H](Cc1c[nH]c2ccccc12)C(=O)N[C@H](CCCCN)C(=O)N[C@H](Cc1c[nH]c2ccccc12)C(N)=O,66.3 µM,4 µM,100%,8 µM,8 µM,100%,8 µM,32 µM,4 µM,Activity [12]: Not Active
4 µM,8 µM,16 µM,8 µM,16 µM,4 µM,11.539 min,47%,35%,30.4%,NCCCC[C@@H](N)C(=O)N[C@H](Cc1c[nH]c2ccccc12)C(=O)N[C@H](CCCCN)C(=O)N[C@H](Cc1c[nH]c2ccccc12)C(=O)N[C@H](CCCCN)C(=O)N1CCC[C@@H]1C(=O)NCC(=O)N[C@H](CCCCN)C(=O)N[C@H](Cc1c[nH]c2ccccc12)C(=O)N[C@H](CCCCN)C(=O)N[C@H](Cc1c[nH]c2ccccc12)C(=O)N[C@H](CCCCN)C(N)=O,> 512 µM,32 µM,100%,8 µM,8 µM,100%,16 µM,32 µM,16 µM,
,,,,,,,,,,POLYMYXIN B,> 512 µM,,,,,,,,,Activity [21]: Toxic; Activity [22]: 0%; Activity [23]: Toxic; Activity [24]: Toxic; Activity [25]: 80%; Activity [26]: Toxic; LD50 [27]: 25.68 mg/kg; Activity [28]: 60%; Activity [29]: Toxic; Activity [30]: Toxic; Activity [31]: Toxic
4 µM,4 µM,8 µM,4 µM,4 µM,2 µM,14.321 min,44.2%,30.5%,50%,NCCCC[C@@H](NC(=O)[C@H](N)Cc1c[nH]c2ccccc12)C(=O)N[C@H](Cc1c[nH]c2ccccc12)C(=O)N[C@H](CCCCN)C(=O)N[C@H](Cc1c[nH]c2ccccc12)C(=O)N1CCC[C@@H]1C(=O)NCC(=O)N[C@H](Cc1c[nH]c2ccccc12)C(=O)N[C@H](CCCCN)C(=O)N[C@H](Cc1c[nH]c2ccccc12)C(=O)N[C@H](CCCCN)C(=O)N[C@H](Cc1c[nH]c2ccccc12)C(N)=O,147.6 µM,8 µM,100%,4 µM,2 µM,100%,8 µM,32 µM,8 µM,
